Measured values: patent US11052092B2, “N-{[2-(piperidin-1-yl)phenyl](phenyl)methyl}-2-(3-oxo-3,4-dihydro-2H-1,4-benzoxazin-7-yl)acetamide derivatives and related compounds as ROR-gamma modulators for treating autoimmune diseases” (Genfit, priority 2017, dated 2021)
“And” between values parts separate entries of the source, which are not always exact repeats. Identical values can stand only once.

Assays:
[1] = target: T1, RORγt ligand-binding domain (RORγt-LBD) (Homo sapiens, UniProt P51449); assay: Time-resolved FRET (TR-FRET) RORγt coactivator assay; conditions: GST-RORγ-LBD, biotinylated RIP140 peptide, 2 hours at room temperature
T1 construct: 20 nM recombinantly expressed RORγ-LBD fused to GST
T1 sequence (P51449 269-508 limits assumed): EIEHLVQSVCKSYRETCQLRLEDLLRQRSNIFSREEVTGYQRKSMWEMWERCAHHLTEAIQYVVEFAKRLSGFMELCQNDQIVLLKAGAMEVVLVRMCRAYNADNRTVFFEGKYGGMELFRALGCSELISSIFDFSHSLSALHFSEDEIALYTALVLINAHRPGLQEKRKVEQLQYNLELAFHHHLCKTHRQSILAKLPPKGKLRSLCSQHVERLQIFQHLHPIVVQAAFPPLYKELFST
Source text: Time-resolved FRET (TR-FRET) RORγt coactivator assay was used to identify RORγ modulator compounds with ligand-dependent coactivator displacement. The assay uses a d2-labeled anti-GST antibody, synthetic N-terminally biotinylated peptide which is derived from nuclear receptor coactivator protein RIP140, and a RORγt ligand-binding domain (RORγt-LBD) that is tagged with glutathione-S-transferase (GST). The influence of compounds on the RORγ-peptide interaction relies on the binding dependent energy transfer from a donor to an acceptor fluorophor attached to the binding partner of interest. […] For reduction of background from compound fluorescence, TR-FRET method makes use of generic fluorophore labels and time resolved detection.
The assays were done in a final volume of 20 μl in a 384 well plate in a CHAPS buffer (2 mM CHAPS; 1 mM DTT, 2 mM EDTA; 0.1% BSA), containing 20 nM recombinantly expressed RORγ-LBD fused to GST, 30 nM N-terminally biotinylated peptide, 1 nM streptavidin-terbium conjugate and 20 nM d2 labeled-anti-GST. Test compounds were diluted using 10 mM stock solution. The range of the final compound concentrations used in this test was from 0.3 nM to 30 μM (logarithmic scale). DMSO content of the samples was kept at 1%. The assay was equilibrated for 2 hours in the dark at room temperature in 384 well plates (Falcon). The signal was detected by an Ultra384 reader (TECAN). […] Compounds that promote coactivator displacement induce a concentration-dependent decrease in time-resolved fluorescent signal. Data were collected and analyzed using GraphPad Prism software (GraphPad Software V5.02, San Diego Calif. USA). IC50 in μM and Emax in % were reported for each compound.

human RORγt = target: T2, human RORγt (Homo sapiens, UniProt P51449); assay: RORE Luciferase/RORγt transactivation assay; assay type: cell-based; conditions: COS-7 cells transfected with human IL-17 promoter luciferase reporter and RORγt plasmid; 20 h with compound; read-out: IC50, RORγt activity inhibition
T2 construct: the full-length cDNA of human RORγt; expressed in transfected cells; host or cells: COS-7 (monkey kidney)
T2 sequence (P51449 1-497 isoform P51449-2): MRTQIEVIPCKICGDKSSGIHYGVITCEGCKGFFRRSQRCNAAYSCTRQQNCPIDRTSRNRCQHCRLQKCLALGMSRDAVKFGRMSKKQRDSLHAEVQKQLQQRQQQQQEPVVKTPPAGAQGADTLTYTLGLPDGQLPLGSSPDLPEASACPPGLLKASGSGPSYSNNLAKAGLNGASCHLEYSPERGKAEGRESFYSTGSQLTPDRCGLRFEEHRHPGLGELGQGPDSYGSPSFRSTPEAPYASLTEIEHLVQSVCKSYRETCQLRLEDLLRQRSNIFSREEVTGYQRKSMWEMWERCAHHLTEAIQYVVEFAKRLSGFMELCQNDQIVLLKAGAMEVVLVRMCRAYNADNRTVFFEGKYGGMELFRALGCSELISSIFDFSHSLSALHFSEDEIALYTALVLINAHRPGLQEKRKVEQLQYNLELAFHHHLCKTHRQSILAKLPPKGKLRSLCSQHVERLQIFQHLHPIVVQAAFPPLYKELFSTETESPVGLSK
How it was run: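 Transactivation read-out: luminescence (Steady-Glo, 30 min at room temperature) from COS-7 cells carrying a RORγt expression plasmid plus a 4.3 kb IL-17 promoter luciferase reporter. Compound exposure was in serum-free DMEM with 0.3% DMSO final. Reported values are IC50 (μM) and Emax (%).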

[2] = tested on: Murine EL-4 lymphoma cell line overexpressing human RORγt; assay: IL-17 secretion from EL4 murine lymphoma; assay type: cell-based; conditions: Mus musculus; human RORγt-transfected EL4 cells, PMA (10 ng/mL) and ionomycin (1 μM), 24 h; read-out: IC50, IL-17 secretion inhibition
How it was run: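 EL-4 cells electroporated with hRORγt plasmid, seeded at 150000 cells/well and pretreated with compound for 24 h, then stimulated with PMA (10 ng/mL) plus ionomycin (1 μM final) with compound for a further 24 h at 37 °C. IL-17 in supernatant measured by HTRF or ELISA.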

## Cc1ccc(C(NC(=O)C2(c3ccc4c(c3)OCS(=O)(=O)N4)CC2)c2ccc(C)o2)c(C)c1 (stereo not drawn) [Cpd. 124, N-[(2,4-dimethylphenyl)(5-methylfuran-2-yl)methyl]-1-(2,2-dioxo-1,3-dihydro-4,2,1-benzoxathiazin-6-yl)cyclopropane-1-carboxamide]
[1]
  IC50: < 10 nM
Human RORγt
  IC50: 10 to 100 nM
[2]
  IC50: 100 to 1000 nM

## Cc1ccc(C(NC(=O)C2(c3ccc4c(c3)OCC(=O)N4)CC2)c2ccc(C)o2)c(C)c1 (stereo not drawn) [Cpd. 59, N-[(2,4-dimethylphenyl)(5-methylfuran-2-yl)methyl]-1-(3-oxo-3,4-dihydro-2H-1,4-benzoxazin-7-yl)cyclopropane-1-carboxamide]
[1]
  IC50: < 10 nM
Human RORγt
  IC50: < 10 nM
[2]
  IC50: < 100 nM

## Cc1ccc(C(NC(=O)Cc2ccc3c(c2)C(O)C(=O)N3C)c2ccc(C)o2)c(N2CCCCC2)c1 (stereo not drawn) [Cpd. 53, 2-(3-hydroxy-1-methyl-2-oxo-2,3-dihydro-1H-indol-5-yl)-N-{[4-methyl-2-(piperidin-1-yl)phenyl](5-methylfuran-2-yl)methyl}acetamide]
[1]
  IC50: < 10 nM
Human RORγt
  IC50: 10 to 100 nM
[2]
  IC50: 100 to 1000 nM

## Cc1ccc(C(NC(=O)Cc2ccc3c(c2)OCC(=O)N3)c2ccccc2)c(N2CCOCC2)c1 (stereo not drawn) [Cpd. 2, N-{[4-methyl-2-(morpholin-4-yl)phenyl](phenyl)methyl}-2-(3-oxo-3,4-dihydro-2H-1,4-benzoxazin-7-yl)acetamide]
[1]
  IC50: 10 to 100 nM
Human RORγt
  IC50: 1000 to 10000 nM
[2]
  IC50: > 10000 nM

## O=C1COc2cc(CC(=O)NC(c3ccccc3)c3ccccc3N3CCCC3)ccc2N1 (stereo not drawn) [Cpd. 5, 2-(3-oxo-3,4-dihydro-2H-1,4-benzoxazin-7-yl)-N-{phenyl[2-(pyrrolidin-1-yl)phenyl]methyl}acetamide]
[1]
  IC50: 10 to 100 nM
Human RORγt
  IC50: 1000 to 10000 nM
[2]
  IC50: > 10000 nM

## Cc1ccc(C(NC(=O)Cc2ccc3c(c2)C(=O)C(=O)N3)c2ccc(C)o2)c(N2CCCCC2)c1 (stereo not drawn) [Cpd. 23, 2-(2,3-dioxo-2,3-dihydro-1H-indol-5-yl)-N-{[4-methyl-2-(piperidin-1-yl)phenyl](5-methylfuran-2-yl)methyl}acetamide]
[1]
  IC50: 100 to 1000 nM
Human RORγt
  IC50: 100 to 1000 nM
[2]
  IC50: 100 to 1000 nM

## CCOc1nc2cc(CC(=O)NC(c3ccccc3)c3ccc(C)cc3Br)ccc2[nH]1 (stereo not drawn) [Cpd. 90, N-[(2-bromo-4-methylphenyl)(phenyl)methyl]-2-(2-ethoxy-1H-1,3-benzodiazol-5-yl)acetamide]
[1]
  IC50: 10 to 100 nM
Human RORγt
  IC50: 10 to 100 nM
[2]
  IC50: 100 to 1000 nM

## Cc1ccc(C(NC(=O)Cc2ccc3[nH]cc(CCS(C)(=O)=O)c3c2)c2ccc(C)o2)c(N2CCCCC2)c1 (stereo not drawn) [Cpd. 98, 2-[3-(2-methanesulfonylethyl)-1H-indol-5-yl]-N-{[4-methyl-2-(piperidin-1-yl)phenyl](5-methylfuran-2-yl)methyl}acetamide]
[1]
  IC50: 10 to 100 nM
Human RORγt
  IC50: 10 to 100 nM
[2]
  IC50: < 100 nM

## CCSc1nc2cc(CC(=O)NC(c3ccccc3)c3ccc(C)cc3Br)ccc2[nH]1 (stereo not drawn) [Cpd. 92, N-[(2-bromo-4-methylphenyl)(phenyl)methyl]-2-[2-(ethylsulfanyl)-1H-1,3-benzodiazol-5-yl]acetamide]
[1]
  IC50: 100 to 1000 nM
Human RORγt
  IC50: 10 to 100 nM
[2]
  IC50: 100 to 1000 nM

## Cc1ccc(C(NC(=O)C2(c3ccc4c(c3)CS(=O)(=O)N4)CC2)c2ccc(C)o2)c(N(C)C)c1 (stereo not drawn) [Cpd. 71, N-{[2-(dimethylamino)-4-methylphenyl](5-methylfuran-2-yl)methyl}-1-(2,2-dioxo-1,3-dihydro-2,1-benzothiazol-5-yl)cyclopropane-1-carboxamide]
[1]
  IC50: < 10 nM
Human RORγt
  IC50: 10 to 100 nM
[2]
  IC50: 100 to 1000 nM

## Cc1ccc(C(NC(=O)Cc2ccc3c(c2)CC(=O)N3)c2ccccc2)c(N2CCCCC2)c1 (stereo not drawn) [Cpd. 16, N-{[4-methyl-2-(piperidin-1-yl)phenyl](phenyl)methyl}-2-(2-oxo-2,3-dihydro-1H-indol-5-yl)acetamide]
[1]
  IC50: 10 to 100 nM
Human RORγt
  IC50: 100 to 1000 nM and 10 to 100 nM
[2]
  IC50: 100 to 1000 nM

## Cc1ccc(C(NC(=O)C2(c3ccc4c(c3)C(=O)C(=O)N4)CC2)c2ccc(C)o2)c(C)c1 (stereo not drawn) [Cpd. 125, N-[(2,4-dimethylphenyl)(5-methylfuran-2-yl)methyl]-1-(2,3-dioxo-2,3-dihydro-1H-indol-5-yl)cyclopropane-1-carboxamide]
[1]
  IC50: < 10 nM
Human RORγt
  IC50: 10 to 100 nM
[2]
  IC50: < 100 nM

## Cc1ccc(C(NC(=O)C2(c3ccc4c(c3)CC(=O)N4C)CC2)c2ccc(C)o2)c(C)c1 (stereo not drawn) [Cpd. 130, N-[(2,4-dimethylphenyl)(5-methylfuran-2-yl)methyl]-1-(1-methyl-2-oxo-2,3-dihydro-1H-indol-5-yl)cyclopropane-1-carboxamide]
[1]
  IC50: < 10 nM
Human RORγt
  IC50: 10 to 100 nM
[2]
  IC50: < 100 nM

## Cc1ccc(C(NC(=O)C2(c3ccc4[nH]cc(CCO)c4c3)CC2)c2ccc(C)o2)c(C)c1 (stereo not drawn) [Cpd. 60, N-[(2,4-dimethylphenyl)(5-methylfuran-2-yl)methyl]-1-[3-(2-hydroxyethyl)-1H-indol-5-yl]cyclopropane-1-carboxamide]
[1]
  IC50: < 10 nM
Human RORγt
  IC50: < 10 nM
[2]
  IC50: < 100 nM

## CSc1ccc2cc(CC(=O)NC(c3ccc(C)o3)c3ccc(C)cc3N3CCCCC3)ccc2c1 (stereo not drawn) [Cpd. 91, N-{[4-methyl-2-(piperidin-1-yl)phenyl](5-methylfuran-2-yl)methyl}-2-[6-(methylsulfanyl)naphthalen-2-yl]acetamide]
[1]
  IC50: 100 to 1000 nM
Human RORγt
  IC50: 10 to 100 nM
[2]
  IC50: 100 to 1000 nM

## COc1ccc(C(NC(=O)Cc2ccc3c(c2)OCC(=O)N3)c2ccccc2)c(N2CCCCC2)c1 (stereo not drawn) [Cpd. 4, N-{[4-methoxy-2-(piperidin-1-yl)phenyl](phenyl)methyl}-2-(3-oxo-3,4-dihydro-2H-1,4-benzoxazin-7-yl)acetamide]
[1]
  IC50: 10 to 100 nM
Human RORγt
  IC50: 100 to 1000 nM
[2]
  IC50: 100 to 1000 nM

## Cc1ccc(C(NC(=O)Cc2ccc3[nH]c(=O)cc(C)c3c2)c2ccccc2)c(N2CCCCC2)c1 (stereo not drawn) [Cpd. 11, N-{[4-methyl-2-(piperidin-1-yl)phenyl](phenyl)methyl}-2-(4-methyl-2-oxo-1,2-dihydroquinolin-6-yl)acetamide]
[1]
  IC50: 100 to 1000 nM
Human RORγt
  IC50: 1000 to 10000 nM
[2]
  IC50: 1000 to 10000 nM

## Cc1ccc(C(NC(=O)Cc2ccc3[nH]c(C)nc3c2)c2ccccc2)c(N2CCCC2)c1 (stereo not drawn) [Cpd. 82, 2-(2-methyl-1H-1,3-benzodiazol-5-yl)-N-{[4-methyl-2-(pyrrolidin-1-yl)phenyl](phenyl)methyl}acetamide]
[1]
  IC50: 10 to 100 nM
Human RORγt
  IC50: 10 to 100 nM
[2]
  IC50: 100 to 1000 nM

## Cc1ccc(C(NC(=O)Cc2ccc3c(c2)CCC3O)c2ccc(C)o2)c(N2CCCCC2)c1 (stereo not drawn) [Cpd. 52, 2-(1-hydroxy-2,3-dihydro-1H-inden-5-yl)-N-{[4-methyl-2-(piperidin-1-yl)phenyl](5-methylfuran-2-yl)methyl}acetamide]
[1]
  IC50: < 10 nM
Human RORγt
  IC50: 10 to 100 nM
[2]
  IC50: 100 to 1000 nM
